# Literature values as cited in patent publication US20200261389A1 (priority 2014, published 2020).
# Read-outs that look alike come from different tables or passages of the source.
# Assays:
# [1] = system: zinc-dependent metalloproteinases; details: for reduction of GP shedding: higher concentrations (25-50 mM)
# retroviruses = details: millimolar concentrations, in vitro
# cultured cells = details: added to cultured cells
# [2] = system: Human Foreskin (HF) cells infected with HSV-2-strain G; details: 3 to 1.5 mM
smiles,measurement,setting,value
"c1cnc2c(c1)ccc1cccnc12 [1,10-phenanthroline]",apoptosis / cell death of leukemia cells,leukemia cells,DNA fragmentation and cell death occurred
CNC(=O)[C@@H](NC(=O)[C@H](CC(C)C)[C@H](O)C(=O)NO)C(C)(C)C [BB2516],inhibition of glycoprotein shedding,[1]; concentration of 0.5 mM,inhibitory effects were observed
COc1ccc(S(=O)(=O)N(Cc2cccnc2)[C@@H](C(=O)NO)C(C)C)cc1 [CGS-27023A],reduction of GP shedding,[1],reduced GP shedding
"O=C(O)CN(CCN(CC(=O)O)CC(=O)O)CC(=O)O [EDTA, ethylenediaminetetraacetic acid]",effect on retroviruses,retroviruses,partial disintegration of viral membranes
"O=C(O)CN(CCOCCOCCN(CC(=O)O)CC(=O)O)CC(=O)O [EGTA, ethylene glycol tetraacetic acid]",effect on retroviruses,retroviruses,partial disintegration of viral membranes
CNC(=O)[C@H](Cc1c[nH]c2ccccc12)NC(=O)[C@@H](CC(=O)NO)CC(C)C [GM6001],inhibition of glycoprotein shedding,[1]; concentration of 5 mM,inhibitory effects were observed
COc1ccc(S(=O)(=O)N(CC(=O)NO)CC(C)C)cc1 [MMP-3 inhibitor II],reduction of GP shedding,[1],reduced GP shedding
COc1ccc(S(=O)(=O)N2Cc3ccccc3C[C@@H]2C(=O)NO)cc1 [MMP-8 inhibitor I],inhibition of glycoprotein shedding,[1]; concentration of 5 mM,inhibitory effects were observed
CC(C)C[C@H](CC(=O)NO)C(=O)N[C@@H](Cc1ccc2ccccc2c1)C(=O)N[C@@H](C)C(=O)NCCN [TAPI-I],reduction of GP shedding,[1],reduced GP shedding
"c1ccc(CN(CCN(Cc2ccccn2)Cc2ccccn2)Cc2ccccn2)nc1 [TPEN, N,N,N′,N′-tetrakis-2-pyridyl methyl-ethylene diamine]",apoptosis of cultured cells,cultured cells,induces apoptosis
O=C(O)c1ccccn1 [picolinic acid],apoptosis of infected cells,[2],cause apoptosis of HF infected cells
same,apoptosis / cell death of leukemia cells,leukemia cells,induces apoptosis
